The source of these data is patent publication US4001230A, “3-(5-Nitroimidazol-2-yl)pyrazolo[3,4-d]pyrimidine compounds” (Eli Lilly and Company, priority 1975, dated 1977).

The test concerns P. multocida. The experiment in a line: In vivo activity in drinking water for treatment of Pasteurella multocida infection in mice (LD50, protective index). The arrangement: species or system white female mice. To be noted: observed 7 days. On the procedure:
A comparison of the in vivo activity of a novel compound of this invention and nitrofurazolidone (Furacin) when administered in drinking water for the treatment of Pasteurella multocida infection in mice was conducted. The novel compound of this invention used in this study was 4,5-di-hydro-4-imino-1-methyl-3-(1-methyl-5-nitroimidazol-2-yl)-5-(4-pyridylmethyl)-1H-pyrazolo[3,4-d]pyrimidine diphosphate, identified by its operating example No. 8k. The test was conducted in the following manner.
Twenty white female mice, each weighing about 15-20 g., were divided into four groups of five mice each, and the groups were each placed on water medication containing:
a. Compound 8k, 0.5 g./gal.
b. Compound 8k, 2.0 g./gal.
c. Nitrofurazolidone, 0.5 g./gal.
d. Nitrofurazolidone, 2.0 g./gal.
The groups receiving each treatment were challenged with 0.1 ml. each of a 10^-^4, 10^-^5, 10^-^6, or 10^-^7 dilution of a 16 to 20-hour broth culture of P. multocida. Untreated groups of mice were challenged with log10 dilutions of the same broth culture using 0.1 ml. of 10^-^4 through 10^-^9 dilutions. […] By subtracting the LD50 of each of the treated groups from that of the control group of mice, there was obtained a figure called the protective index.
In the table, column 1 sets forth the treatment; column 2, the LD50; and column 3 the log10 protection obtained.

Where only a bound is given, the exact number is not on record here.

Regarding “5-[2-(Diethylamino)ethyl]-4,5-dihydro-4-imino-1-methyl-3-(1-methyl-5-nitroimidazol-2-yl)-1H-pyrazolo[3,4-d]-pyrimidine disulfate [Example 8i]”, the “Protective Index (log10 protection)” value runs as follows: (0.5 g./gal. in drinking water) > 2.5; (2.0 g./gal. in drinking water) > 2.5.
